For experiment [1], the system named is genotype 1a (H77) stable HCV replicon in Huh-7-derived cells. The experiment is described as follows: Stable subgenomic HCV replicon EC50, genotype 1a (Renilla luciferase). Format: cell-based, hepatitis C virus. The conditions noted are these: Hepatitis C virus, stable replicon genotype 1a, 72 h, read-out: EC50 1A RLUC. Summed up: (§1)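 Compounds, three-fold diluted, were applied to Huh-7-derived cells harbouring luciferase replicons (genotype 1a H77, 1b Con1, 2a JFH-1, 4a ED43, with strain-specific adaptive mutations). Seventy-two hours later, intracellular replication was gauged by Renilla luciferase activity and EC50 derived by regression.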
Background: In antiviral work, replicon cells carry a viral genome segment that copies itself.

For experiment [2], the system named is genotype 4a (ED43) stable HCV replicon in Huh-7-derived cells. Briefly: Stable subgenomic HCV replicon EC50, genotype 4a (Renilla luciferase). Format: cell-based, hepatitis C virus. The conditions noted are these: Hepatitis C virus, 72 h, read-out: EC50 4A RLUC. Summed up: as §1
Experiment [3] has as its system genotype 1b (Con1) stable HCV replicon in Huh-7-derived cells. The experiment is described as follows: Stable subgenomic HCV replicon EC50, genotype 1b (Renilla luciferase). The conditions noted are these: Hepatitis C virus, stable replicon genotype 1b, 72 h, read-out: EC50 1B RLUC. Format: cell-based, hepatitis C virus. Summed up:
as §1

Experiment [4] addresses HCV NS3 protease domain genotype 3a (Hepatitis C virus genotype 3a, UniProt Q81258). Briefly: Ki determination, NS3 protease genotype 3a (fluorogenic depsipeptide substrate). The format is biochemical. The conditions noted are these: 200 pM enzyme, NS4A peptide. From the text:
Purified NS3 protease domain (amino acids 1-181) of the genotype 1b and 3a virus were generated as above. The internally quenched fluorogenic depsipeptide substrate Ac-DED(Edans)-EEAbuΨ[COO]ASK(Dabcyl)-NH2 and a synthetic peptide containing the hydrophobic core residues of the NS4A protein cofactor ([…]; NS4A peptide) were obtained from Anaspec, Inc. (San Jose, Calif.). Other chemicals and biochemicals were of reagent grade or better and were purchased from standard suppliers.
Reactions were run at room temperature in buffer consisting of 50 mM HEPES, 40% glycerol, 0.05% Triton X-100, 10 mM DTT, and 10% DMSO. The final assay solutions contained 50 pM NS3 genotype 1 b protease or 200 pM genotype 3a protease, 20 μM NS4A peptide, and 4 μM substrate (genotype 1b) or 2 μM substrate (genotype 3a). Inhibitor concentrations varied from 100 nM to 5 pM in 3-fold dilutions, and no-inhibitor controls were included.
Compound dilutions were made in DMSO at 20× final concentration. Reaction mixtures were prepared in 96-well assay plates. A solution of enzyme and NS4A peptide in assay buffer (25 μL volume with both reagents at 4× final concentration) was mixed with 45 μL assay buffer and 5 μL of either inhibitor or DMSO, and pre-incubated at room temperature for 1 hour. The reaction was started by addition of 25 μL substrate solution at 4× final concentration. Plates were mixed vigorously for 5-10 seconds and reactions were allowed to proceed for 90 minutes, fluorescence was measured every 30 s between 90 and 120 minutes reaction time using a Tecan InfiniTe M1000 or PerkinElmer Envision multimode plate reader with an excitation wavelength of 340 nm and an emission wavelength of 490 nm.
Rates were calculated from the progress curves at steady state, in the time frame of 90-120 minutes after addition of substrate. To determine the Ki, rates were plotted as a function of inhibitor concentration, and the data were fit with equation 1 (Morrison, J. F., Biochimica et Biophysica Acta 1969, 185, 269-286) to calculate Ki^app using GraphPad Prism 5. Active fraction of enzyme was determined by active site titration with known potent inhibitors. Ki was calculated from Ki^app/(1+[[S]/Km]).

Experiment [5] relates to genotype 3a (S52) stable HCV replicon in Huh-7-derived cells. The experiment is described as follows: Stable subgenomic HCV replicon EC50, genotype 3a (Renilla luciferase). The format is cell-based, hepatitis C virus. The conditions noted are these: Hepatitis C virus, 72 h, read-out: EC50 3A RLUC.
For experiment [6], the system named is genotype 2a (JFH-1) stable HCV replicon in Huh-7-derived cells. The experiment is described as follows: Stable subgenomic HCV replicon EC50, genotype 2a (Renilla luciferase). The format is cell-based, hepatitis C virus. The settings on record: Hepatitis C virus, stable replicon genotype 2a, 72 h, read-out: EC50 2A RLUC. The gist of the method: as §1
Experiment [7] has as its system genotype 1a NS3/4a protease inhibitor resistant variant R155K transient HCV replicon in Huh-7-derived cells. Briefly: Transient-transfected HCV replicon EC50, genotype 1a R155K. The settings on record: Hepatitis C virus, 72 h, read-out: EC50 1A R155K, transient-transfected replicon genotype 1a R155K resistant variant, 72 h. The format is cell-based, hepatitis C virus.

The subject of experiment [8] is genotype 1b (Con1) wild type transient HCV replicon in Huh-7-derived cells. Briefly: Transient-transfected HCV replicon EC50, genotype 1b wild type. The format is cell-based, hepatitis C virus. The conditions noted are these: Hepatitis C virus, 72 h, transient-transfected replicon genotype 1b wild type, read-out: EC50 1B WT.
Experiment [9] has as its system genotype 1a (H77) wild type transient HCV replicon in Huh-7-derived cells. Briefly: Transient-transfected HCV replicon EC50, genotype 1a wild type. Format: cell-based, hepatitis C virus. The conditions noted are these: Hepatitis C virus, 72 h, transient-transfected replicon genotype 1a wild type, read-out: EC50 1A WT.
Experiment [10] relates to genotype 3a (S52) wild type transient HCV replicon in Huh-7-derived cells. The experiment is described as follows: Transient-transfected HCV replicon EC50, genotype 3a wild type. The settings on record: Hepatitis C virus; transient-transfected replicon genotype 3a wild type, 72 h; read-out: EC50 3A WT. Format: cell-based, hepatitis C virus.
In experiment [11] the test system is genotype 1b NS3/4a protease inhibitor resistant variant D168A transient HCV replicon in Huh-7-derived cells. Briefly: Transient-transfected HCV replicon EC50, genotype 1b D168A. The format is cell-based, hepatitis C virus. The settings on record: Hepatitis C virus, 72 h, read-out: EC50 1B D168A, transient-transfected replicon genotype 1b D168A resistant variant, 72 h.

HCV NS3 protease domain genotype 3a, sequence (Q81258 whole entry, looked up, the tested form may be a part): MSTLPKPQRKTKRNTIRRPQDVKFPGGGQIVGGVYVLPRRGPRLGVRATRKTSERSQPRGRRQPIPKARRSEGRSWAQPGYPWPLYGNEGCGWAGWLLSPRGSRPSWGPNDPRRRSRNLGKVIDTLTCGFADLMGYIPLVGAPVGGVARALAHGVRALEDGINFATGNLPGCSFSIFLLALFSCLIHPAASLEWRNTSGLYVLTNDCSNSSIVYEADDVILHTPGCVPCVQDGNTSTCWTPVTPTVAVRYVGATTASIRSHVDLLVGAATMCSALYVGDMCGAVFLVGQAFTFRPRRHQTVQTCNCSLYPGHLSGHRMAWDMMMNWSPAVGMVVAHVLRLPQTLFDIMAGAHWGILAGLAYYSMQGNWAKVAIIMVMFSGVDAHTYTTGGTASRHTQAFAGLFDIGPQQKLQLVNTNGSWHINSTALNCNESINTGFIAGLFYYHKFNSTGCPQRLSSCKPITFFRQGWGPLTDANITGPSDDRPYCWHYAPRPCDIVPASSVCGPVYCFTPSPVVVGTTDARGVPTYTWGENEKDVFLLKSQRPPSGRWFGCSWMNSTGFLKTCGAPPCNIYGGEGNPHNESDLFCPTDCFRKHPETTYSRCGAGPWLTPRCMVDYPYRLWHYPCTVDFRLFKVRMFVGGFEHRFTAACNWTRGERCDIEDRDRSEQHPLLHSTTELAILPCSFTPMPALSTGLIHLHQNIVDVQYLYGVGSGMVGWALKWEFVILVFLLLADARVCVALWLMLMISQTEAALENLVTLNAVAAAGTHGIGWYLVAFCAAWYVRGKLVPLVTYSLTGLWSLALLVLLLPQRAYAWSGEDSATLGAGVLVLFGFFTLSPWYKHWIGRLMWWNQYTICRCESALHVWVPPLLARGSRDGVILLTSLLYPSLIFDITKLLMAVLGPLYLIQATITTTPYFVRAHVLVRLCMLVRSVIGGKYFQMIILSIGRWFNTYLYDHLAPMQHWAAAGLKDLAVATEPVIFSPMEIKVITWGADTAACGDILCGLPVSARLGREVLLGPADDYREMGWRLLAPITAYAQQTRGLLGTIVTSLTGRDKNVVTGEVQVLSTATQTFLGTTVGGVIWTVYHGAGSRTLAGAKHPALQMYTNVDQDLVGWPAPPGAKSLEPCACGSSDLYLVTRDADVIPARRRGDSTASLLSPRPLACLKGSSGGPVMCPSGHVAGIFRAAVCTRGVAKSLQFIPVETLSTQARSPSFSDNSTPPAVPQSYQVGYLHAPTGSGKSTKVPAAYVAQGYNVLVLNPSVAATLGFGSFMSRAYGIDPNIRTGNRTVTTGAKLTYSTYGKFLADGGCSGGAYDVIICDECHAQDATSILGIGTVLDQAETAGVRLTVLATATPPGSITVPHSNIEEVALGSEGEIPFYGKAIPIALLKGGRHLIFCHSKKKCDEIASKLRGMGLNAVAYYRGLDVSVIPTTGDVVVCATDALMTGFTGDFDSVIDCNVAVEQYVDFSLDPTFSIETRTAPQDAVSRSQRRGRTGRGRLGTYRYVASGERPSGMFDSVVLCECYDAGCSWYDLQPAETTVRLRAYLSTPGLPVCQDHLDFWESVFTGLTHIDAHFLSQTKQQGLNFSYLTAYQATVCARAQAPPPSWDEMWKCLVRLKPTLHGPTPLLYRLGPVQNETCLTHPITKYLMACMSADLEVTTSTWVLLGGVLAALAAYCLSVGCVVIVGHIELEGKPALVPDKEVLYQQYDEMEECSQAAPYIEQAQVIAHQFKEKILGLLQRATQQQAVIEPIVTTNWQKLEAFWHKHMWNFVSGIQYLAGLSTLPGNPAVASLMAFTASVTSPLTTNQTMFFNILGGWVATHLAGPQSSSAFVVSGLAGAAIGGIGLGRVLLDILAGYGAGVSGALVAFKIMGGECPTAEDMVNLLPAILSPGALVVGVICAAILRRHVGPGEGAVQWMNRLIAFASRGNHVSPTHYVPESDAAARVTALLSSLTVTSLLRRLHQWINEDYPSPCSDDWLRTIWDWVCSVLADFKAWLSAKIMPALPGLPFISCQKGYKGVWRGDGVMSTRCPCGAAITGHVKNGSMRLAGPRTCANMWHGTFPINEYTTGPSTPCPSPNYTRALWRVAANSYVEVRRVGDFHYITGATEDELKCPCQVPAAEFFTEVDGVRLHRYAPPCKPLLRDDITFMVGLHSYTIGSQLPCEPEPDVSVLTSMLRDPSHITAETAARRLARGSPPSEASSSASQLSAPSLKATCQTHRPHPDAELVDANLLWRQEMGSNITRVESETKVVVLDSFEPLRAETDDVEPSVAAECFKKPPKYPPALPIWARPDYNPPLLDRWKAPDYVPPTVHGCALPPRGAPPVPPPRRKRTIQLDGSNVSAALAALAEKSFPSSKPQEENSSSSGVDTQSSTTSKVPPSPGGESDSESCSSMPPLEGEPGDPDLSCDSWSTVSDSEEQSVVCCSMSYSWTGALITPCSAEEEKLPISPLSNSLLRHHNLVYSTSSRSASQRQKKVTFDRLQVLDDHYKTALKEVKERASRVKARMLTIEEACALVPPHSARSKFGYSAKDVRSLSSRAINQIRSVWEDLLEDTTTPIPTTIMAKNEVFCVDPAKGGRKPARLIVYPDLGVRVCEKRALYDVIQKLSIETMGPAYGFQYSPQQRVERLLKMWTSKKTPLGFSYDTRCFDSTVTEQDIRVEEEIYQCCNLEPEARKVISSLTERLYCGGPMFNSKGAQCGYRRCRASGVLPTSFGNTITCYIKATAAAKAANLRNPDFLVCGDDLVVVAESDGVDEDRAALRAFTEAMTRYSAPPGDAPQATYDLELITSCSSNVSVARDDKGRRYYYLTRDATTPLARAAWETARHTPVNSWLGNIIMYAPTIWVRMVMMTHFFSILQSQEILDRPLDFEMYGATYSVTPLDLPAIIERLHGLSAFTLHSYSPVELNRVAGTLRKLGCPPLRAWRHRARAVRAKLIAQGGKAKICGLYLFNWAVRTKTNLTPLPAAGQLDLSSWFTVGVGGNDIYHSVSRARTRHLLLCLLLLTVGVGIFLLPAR

As to `CC[C@@H]1[C@@H]2CN(C(=O)[C@H](C3CCCCC3)NC(=O)O[C@@H]3C[C@H]3CCCCCc3nc4ccc(OC)cc4nc3O2)[C@@H]1C(=O)N[C@]1(C(=O)NS(=O)(=O)C2(C)CC2)C[C@H]1C(F)F` [Example 16, (1aR,5S,8S,9S,10R,22aR)-5-cyclohexyl-N-[(1R,2R)-2-(difluoromethyl)-1-{[(1-methylcyclopropyl)sulfonyl]carbamoyl}cyclopropyl]-9-ethyl-14-methoxy-3,6-dioxo-1,1a,3,4,5,6,9,10,18,19,20,21,22,22a-tetradecahydro-8H-7,10-methanocyclopropa[18,19][1,10,3,6]dioxadiazacyclononadecino[11,12-b]quinoxaline-8-carboxamide], the EC50 in experiment [1] stood at 12 nM; in experiment [2], 8.1 nM; in [3] it was 7.4 nM; in experiment [5], 201 nM; in experiment [6] it was 6.2 nM. Further, the Ki in [4] was determined as 0.21 nM.
As for `COc1ccc2nc3c(nc2c1)O[C@H]1CN(C(=O)[C@H](C(C)(C)C)NC(=O)O[C@@H]2C[C@H]2CCCCC3)[C@H](C(=O)N[C@]2(C(=O)NS(=O)(=O)C3(C)CC3)C[C@H]2C(F)F)[C@@H]1C` [Example 18, (1aR,5S,8S,9S,10R,22aR)-5-tert-butyl-N-[(1R,2R)-2-(difluoromethyl)-1-{[(1-methylcyclopropyl)sulfonyl]carbamoyl}cyclopropyl]-14-methoxy-9-methyl-3,6-dioxo-1,1a,3,4,5,6,9,10,18,19,20,21,22,22a-tetradecahydro-8H-7,10-methanocyclopropa[18,19][1,10 3,6]dioxadiazacyclononadecino[11,12-b]quinoxaline-8-carboxamide], the concentration giving a half-maximal response (EC50) in experiment [1] was determined as 3.9 nM; in [2] it was 2.8 nM; in [3], 2.6 nM; in [5], 70 nM; in [6] it was 5 nM. Affinity in experiment [4] was put at a Ki of 0.1 nM.
Consider `CC[C@@H]1[C@@H]2CN(C(=O)[C@H](C(C)(C)C)NC(=O)O[C@@H]3C[C@H]3CCCCC(F)(F)c3nc4ccc(OC)cc4nc3O2)[C@@H]1C(=O)NC1(C(=O)NS(=O)(=O)C2CC2)C[C@H]1C(F)F` (stereo partly drawn) [Example 94, (1aR,5S,8S,9S,10R,22aR)-5-tert-butyl-N-[(2R)-1-[(cyclopropylsulfonyl)carbamoyl]-2-(difluoromethyl)cyclopropyl]-9-ethyl-18,18-difluoro-14-methoxy-3,6-dioxo-1,1a,3,4,5,6,9,10,18,19,20,21,22,22a-tetradecahydro-8H-7,10-methanocyclopropa[18,19][1,10,3,6]dioxadiazacyclononadecino[1,12-b]quinoxaline-8-carboxamide], for which the EC50 amounted to 3.8 nM in [1]; 3 nM in experiment [2]; 3.1 nM in experiment [7]; 1.9 nM in [8]; 5.2 nM in experiment [3]; 3.2 nM in experiment [9]. Also, the EC50 in [10] stood at 10 nM; in [5], 32 nM; in [6], 3.3 nM; in experiment [11], 9.2 nM.
Take `C[C@@H]1[C@@H]2CN(C(=O)[C@H](C(C)(C)C)NC(=O)O[C@@H]3C[C@@H]4C[C@@H]4[C@H]3CC/C=C/Cn3c(nc4cc(Cl)ccc4c3=O)O2)[C@@H]1C(=O)N[C@]1(C(=O)NS(=O)(=O)C2(C)CC2)C[C@H]1C(F)F` [Example 96, (1aS,2aR,6S,9S,10S,11R,21E,24aR,24bS)-6-tert-butyl-15-chloro-N-[(1R,2R)-2-(difluoromethyl)-1-{[(1-methylcyclopropyl)sulfonyl]carbamoyl}cyclopropyl]-10-methyl-4,7,18-trioxo-1a,2,2a,4,5,6,7,10,11,20,23,24,24a,24b-tetradecahydro-1H,9H,18H-8,11-methanocyclopropa[4′,5′]cyclopenta[1′,2′:18,19][1,10,3,6,12]dioxatriazacyclononadecino[11,12-b]quinazoline-9-carboxamide]: the EC50 in experiment [1] came to 12 nM; in [2], 8.9 nM; in experiment [7] it was 3.8 nM; in experiment [8], 4.1 nM; in [3], 11 nM; in experiment [9] it was 5.2 nM. In addition, the EC50 is 12 nM in [10], 77 nM in experiment [5], 5.4 nM in [6] and 3.6 nM in experiment [11].
As to `C[C@@H]1[C@@H]2CN(C(=O)[C@H](C(C)(C)C)NC(=O)O[C@@H]3C[C@@H]4C[C@@H]4[C@H]3CCCCCc3nc4ccc(C#N)cc4nc3O2)[C@@H]1C(=O)NC1(C(=O)NS(=O)(=O)C2(C)CC2)C[C@H]1C(F)F` (stereo partly drawn) [Example 97, (1aS,2aR,6S,9S,10S,11R,23aR,23bS)-6-tert-butyl-15-cyano-N-[(2R)-2-(difluoromethyl)-1-{[(1-methylcyclopropyl)sulfonyl]carbamoyl}cyclopropyl]-10-methyl-4,7-dioxo-1a,2,2a,4,5,6,7,10,11,19,20,21,22,23,23a,23b-hexadecahydro-1H, 9H-8,11-methanocyclopropa[4′,5′]cyclopenta[1′,2′:18,19][1,10,3,6]dioxadiazacyclononadecino[11,12-b]quinoxaline-9-carboxamide], the EC50 in [1] was found to be 6.3 nM; in experiment [2] it was 5.3 nM; in experiment [7], 3.7 nM; in experiment [8] it was 2.5 nM; in experiment [3], 4.6 nM; in experiment [9] it was 3.6 nM. Moreover, the EC50 in [10] came to 5.8 nM; in [5], 67 nM; in experiment [6], 5.8 nM; in [11], 8.8 nM.

In general, EC50 refers to the concentration giving half of the maximal effect. As a reminder, the Ki is a measure of affinity in units of concentration, obtained from inhibition or displacement. Read a high Ki as a looser hold on the target.

The values are drawn from patent publication US10335409B2 (priority 2012, dated 2019).
